Type in all cases: cell-based
The target in one series is T1, TLR9 (Mus musculus, UniProt Q9EQU3).
T1 construct: endogenous in cells; host or cells: RAW 264.7
T1 sequence (Q9EQU3 26-1032): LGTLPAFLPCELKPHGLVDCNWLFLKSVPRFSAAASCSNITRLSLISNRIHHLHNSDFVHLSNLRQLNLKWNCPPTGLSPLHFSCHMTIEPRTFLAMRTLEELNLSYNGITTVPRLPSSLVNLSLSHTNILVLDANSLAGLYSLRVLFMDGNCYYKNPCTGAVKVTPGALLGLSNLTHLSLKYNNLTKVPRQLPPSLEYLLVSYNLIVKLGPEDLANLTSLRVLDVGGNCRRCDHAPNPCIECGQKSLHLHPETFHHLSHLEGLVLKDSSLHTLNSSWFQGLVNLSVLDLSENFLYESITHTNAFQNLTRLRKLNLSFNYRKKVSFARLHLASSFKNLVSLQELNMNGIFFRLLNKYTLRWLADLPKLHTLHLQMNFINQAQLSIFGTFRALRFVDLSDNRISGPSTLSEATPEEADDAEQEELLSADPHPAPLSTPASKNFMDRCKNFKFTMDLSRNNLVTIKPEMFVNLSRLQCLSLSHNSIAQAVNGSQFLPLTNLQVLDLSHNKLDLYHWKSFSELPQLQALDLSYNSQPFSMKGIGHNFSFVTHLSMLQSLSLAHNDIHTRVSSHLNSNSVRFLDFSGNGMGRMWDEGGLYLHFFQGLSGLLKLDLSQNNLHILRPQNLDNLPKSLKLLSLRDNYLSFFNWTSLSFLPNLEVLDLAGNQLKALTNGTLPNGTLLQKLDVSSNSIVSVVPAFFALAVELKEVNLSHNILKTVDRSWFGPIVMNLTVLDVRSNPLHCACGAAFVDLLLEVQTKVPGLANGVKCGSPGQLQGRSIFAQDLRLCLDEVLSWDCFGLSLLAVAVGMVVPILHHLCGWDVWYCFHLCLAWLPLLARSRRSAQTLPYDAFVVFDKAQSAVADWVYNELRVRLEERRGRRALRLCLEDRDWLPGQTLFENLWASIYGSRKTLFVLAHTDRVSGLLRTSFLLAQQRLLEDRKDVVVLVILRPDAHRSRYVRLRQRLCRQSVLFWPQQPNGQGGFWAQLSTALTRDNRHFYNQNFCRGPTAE
Nature of the series: TLR9 inhibition, TNF-α secretion (ELISA) in RAW 264.7. The following applies: RAW 264.7 cell line; read-out: TLR9 IC50 (mTNFα). The protocol:
(§1) RAW 264.7 and differentiated THP-1 cells were seeded into 96-well plates at 2 × 10^4 cells per well, while Daudi cells were seeded at 5 × 10^4 cells per well. After stabilization for 30 min, cells were stimulated with specific TLR agonists for 4 or 24 h. Supernatants were diluted and transferred to precoated ELISA plates to measure TNF-α secretion using kits from Invitrogen. Optical absorbance was measured using a BioTek Synergy HTX multimode microplate reader, and data were interpolated using BioTek Gen5 software.
(§2) One-tailed paired Student’s t-tests were performed using Microsoft Excel (Microsoft). Semi-logarithmic conversions and nonregression curve analyses for calculating 50% lethal concentration (LC50) and 50% inhibitory concentration (IC50) values were conducted using GraphPad Prism 7.0 (GraphPad). The therapeutic index was calculated as […]. Animal experimental results are expressed as mean ± standard deviation and analyzed using SPSS v.20 (IBM SPSS Statistics). Homogeneity of variance was assessed using Levene’s test.
(§3) The cells were activated with agonistic ligands: […], TLR3 (poly I:C, 2 μg/ml, 24 h), TLR4 (LPS, 10 or 100 ng/ml, 4 h), TLR5 (FLA-ST, 500 ng/ml, 4 h), TLR7 (ORN06/LyoVec, 2 μg/ml, 24 h; and IMQ, 1 μg/ml, 4 h), TLR8 (TL8-506, 2 μg/ml, 24 h) and TLR9 (ODN2395, 1 μM, 4 h) at various concentrations in RAW 264.7 cells, human Daudi cells and THP-1 cells. Data are from at least three independent experiments (n = 3) and statistical differences between the induced case and other cases were analyzed and verified using a one-tailed Student’s t-test (*P < 0.05, **P < 0.01, ***P < 0.001).

Series [1] can be described thus: MTT assay, cell survival in RAW 264.7. The following applies: mouse, RAW 264.7 cells, RAW 264.7 cell line, read-out: LC50. The protocol: After 24 h, the supernatant was removed, and 500 μg/ml of 3-[4,5-dimethylthiazol-2-yl]-2,5 diphenyl tetrazolium bromide (MTT) solution (Invivogen) was added. After a 3 h incubation, the supernatant was removed, and DMSO was added to dissolve the formazan dye.
One-tailed paired Student’s t-tests were performed using Microsoft Excel (Microsoft). […] The therapeutic index was calculated as […]. Animal experimental results are expressed as mean ± standard deviation and analyzed using SPSS v.20 (IBM SPSS Statistics). Homogeneity of variance was assessed using Levene’s test.
Data are from at least three independent experiments (n = 3) and statistical differences between the induced case and other cases were analyzed and verified using a one-tailed Student’s t-test (*P < 0.05, **P < 0.01, ***P < 0.001).
For orientation: Tetrazolium assays rely on reduction of a dye to a coloured formazan, in cell work by metabolically active cells.

In another series the test system is endosomal TLRs. Nature of the series: Endosomal TLR-mediated TNF-α production, summary over cell lines. The note with it: dose-dependent, without inducing cytotoxic effects. How it is done:
as §1
TLR activation triggers the NF-κB pathway, resulting in increased production of pro-inflammatory cytokines, such as TNF-α and IL-6.

The next series concerns the target T2, TLR7 (Mus musculus, UniProt P58681).
T2 construct: endogenous in cells; host or cells: RAW 264.7
T2 sequence (P58681 27-1050): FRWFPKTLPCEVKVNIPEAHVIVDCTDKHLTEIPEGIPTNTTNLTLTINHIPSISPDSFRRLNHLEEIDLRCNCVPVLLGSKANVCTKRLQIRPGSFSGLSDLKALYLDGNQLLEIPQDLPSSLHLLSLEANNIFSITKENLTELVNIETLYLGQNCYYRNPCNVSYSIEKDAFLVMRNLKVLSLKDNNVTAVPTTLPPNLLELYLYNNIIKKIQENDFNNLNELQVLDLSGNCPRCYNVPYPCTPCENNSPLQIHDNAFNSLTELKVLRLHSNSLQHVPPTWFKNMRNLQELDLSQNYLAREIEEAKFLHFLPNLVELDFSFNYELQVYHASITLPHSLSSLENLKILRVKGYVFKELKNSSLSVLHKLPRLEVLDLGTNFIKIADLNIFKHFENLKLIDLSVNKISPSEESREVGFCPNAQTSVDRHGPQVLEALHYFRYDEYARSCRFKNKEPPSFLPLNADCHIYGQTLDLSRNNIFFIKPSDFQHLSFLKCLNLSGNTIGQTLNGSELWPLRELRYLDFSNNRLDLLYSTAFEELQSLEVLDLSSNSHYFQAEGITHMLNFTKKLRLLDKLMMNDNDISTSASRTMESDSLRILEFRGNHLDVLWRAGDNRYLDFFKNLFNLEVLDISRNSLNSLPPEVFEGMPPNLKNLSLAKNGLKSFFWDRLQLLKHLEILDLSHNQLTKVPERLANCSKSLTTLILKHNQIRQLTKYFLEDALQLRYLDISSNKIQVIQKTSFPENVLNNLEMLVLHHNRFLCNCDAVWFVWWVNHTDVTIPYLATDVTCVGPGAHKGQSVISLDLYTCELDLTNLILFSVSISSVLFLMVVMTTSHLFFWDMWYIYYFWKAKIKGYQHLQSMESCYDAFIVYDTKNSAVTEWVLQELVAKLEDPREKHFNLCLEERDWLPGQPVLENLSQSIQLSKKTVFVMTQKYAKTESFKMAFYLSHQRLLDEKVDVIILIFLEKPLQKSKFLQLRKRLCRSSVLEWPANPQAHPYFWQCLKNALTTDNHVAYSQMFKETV
Nature of the series: TLR7 inhibition, TNF-α secretion (ELISA) in RAW 264.7. How it is done: as §1, §2, §3
On the technique in general: An ELISA detects its analyte on a solid surface through an enzyme-linked reagent.

By IC50 is commonly meant the point on the concentration scale where inhibition reaches its midpoint. In the case of `Cc1c(C)n(CCCN(C)C)c2nc3c(c(N)c12)CCCCC3` [ETI15, 1-(3-(dimethylamino)propyl)-2,3-dimethyl-1,5,6,7,8,9-hexahydrocyclohepta[b]pyrrolo[3,2-e]pyridin-4-amine], the IC50 was 360 nM on TLR9 and 2810 nM at TLR7 (RAW 264.7 cell line, read-out: TLR7 IC50 (mTNFα)). For the same compound, in series [1], the CC50 at 24 h stood at 67900 nM. In the series on endosomal TLRs, the “TNF-α production by RAW 264.7 and Daudi cells” value is “effectively inhibited”. At TLR7 (therapeutic index, RAW 264.7), the “TLR7 TI value” amounted to 24.16.

The record behind these values is PMC12508057, “Discovery of ETI41 and ETI60: novel selective endosomal Toll-like receptor inhibitors for the treatment of autoimmune diseases” (Experimental & Molecular Medicine, 2025).
